Measurements taken from patent publication US20220331371A1, “DEVELOPMENT OF EMBRYONIC-LIKE TISSUE FROM STEM CELLS” (The Regents of the University of Michigan, priority 2019, published 2022).

Tests used:
[1] = tested on: PrePS-EPI-like cells in P-ELS; assay: Posterior primitive streak-like cell development in P-ELS with antagonists in the induction channel; assay type: cell-based, human
Description: Cell lines. hPSC lines used in this study include H1 human ES cell (WA01, WiCell; NIH registration number: 0043), H9 human ES cell (WA09, WiCell; NIH registration number: 0062) and 1196a (a human iPSC line from the University of Michigan Pluripotent Stem Cell Core31). All hPSC lines have been authenticated by original sources as well as in-house by immunostaining for pluripotency markers and successful differentiation to the three germ layers. All hPSC lines are maintained in a feeder-free system for at least ten passages and authenticated as karyotypically normal. Karyotype analysis was performed by Cell Line Genetics. All hPSC lines are tested negative for mycoplasma contamination (LookOut Mycoplasma PCR Detection Kit, Sigma-Aldrich). Cell culture. hPSCs were maintained in a standard feeder-free culture system using mTeSR medium (mTeSR; STEMCELL Technologies) or TeSR-E8 medium (Essential 8 or E8; STEMCELL Technologies) and lactate dehydrogenase-elevating virus (LDEV)-free, human ES cell-qualified reduced growth factor basement membrane matrix Geltrex (Thermo Fisher Scientific; derived from Engelbreth-Holm-Swarm tumors similarly to Matrigel). Cell cultures were visually examined during each passage to ensure absence of spontaneously differentiated, mesenchymal-like cells in culture. All hPSCs were used before reaching P70. Device fabrication. The microfluidic device consists of a polydimethylsiloxane (PDMS) structure layer bonded to a coverslip. The PDMS structure layer is made by mixing PDMS curing agent and base polymer (Sylgard 184; Dow Coming) at a ratio of 1:10 before casting PDMS prepolymer onto a microfabricated silicon mold and baking at 110° C. for 40 min. Medium reservoirs (8 mm in diameter) and gel-loading ports (1.2 mm in diameter) were then punched into the PDMS structure layer using Harris Uni-Core punch tools (Ted Pella). After cleaning with ethanol and air plasma activation, the PDMS structure layer was bonded to a coverslip before baking at 80° C. overnight. Before usage, the microfluidic device was sterilized under UV light for 30 min. […]

[2] = tested on: human ES cells co-cultured with Transwell-AMLCs; assay: Transwell co-culture assay of AMLCs and human ES cells; assay type: cell-based; conditions: 5 μM in Transwell co-culture, 48 h
Protocol: Immunocytochemistry. hPSCs were fixed in 4% paraformaldehyde (PFA; buffered in 1× PBS) for 12 h, and permeabilized in 0.1% SDS solution (sodium dodecyl sulphate, dissolved in PBS) for another 3 h. Samples were then blocked in 4% donkey serum (Sigma-Aldrich) at 4° C. for 24 h, followed by incubation with primary antibody solutions at 4° C. for another 24 h. Samples were then labelled with donkey-raised secondary antibodies (1:500 dilution) at 4° C. for 24 h, 4,6-diamidino-2-phenylindole (DAPI; Thermo Fisher Scientific) was used for counterstaining cell nuclei. Alexa Fluor dye-conjugated WGA (Thermo Fisher Scientific) and phalloidin (Invitrogen) were used for visualization of cell membrane and actin microfilaments, respectively. Both primary and secondary antibodies were prepared in 4% donkey serum supplemented with 0.1% NaN3. Seventy microlitre antibody solutions were added to each medium reservoir for immunostaining. The asymmetric embryonic-like sac structure was assessed by immunocytochemistry to confirm molecular asymmetry at t=36 h (for P-ELS: co-staining for TFAP2A and T; for A-ELS: co-staining for TFAP2A and NANOG). In situ hybridization. […] For morphogenetic quantification, bright-field or phase-contrast images were acquired using a Zeiss Observer Z1 microscope (Carl Zeiss MicroImaging) equipped with a monochrome CCD camera (AxioCam, Carl Zeiss MicroImaging). […]

**Q.** Which “Inhibition of induction of MeLC in posteriorized embryonic-like sac” value ([1]; IWR1 10 μM or IWP2 5 μM) does the source give for Cc1ccc2nc(NC(=O)CSc3nc4c(c(=O)n3-c3ccccc3)SCC4)sc2c1 [IWP2] here?
**A.** Its value is “inhibited”.

**Q.** And the “Inhibition of PrePS-EPI-like cell development” value ([1]; supplemented in the induction channel (IWP2 5 μM, IWR1 10 μM, noggin 50 ng ml^−1), BMP4 in cell-loading channel)?
**A.** The value was “completely inhibited”.

**Q.** What about the “Differentiation of posterior primitive streak-like cells” value [2] of the same compound?
**A.** Its value is “inhibited”.
